In brackets after ≈: the same amount, converted by molar mass. Entries after “also recorded” stand apart in the source; their conditions may differ.
Tests used:
Pasteurella multocida [1] = assay: Treatment of Pasteurella multocida infection by melatonin in mice; format: in vivo, C57BL/6 mice; conditions: intraperitoneal at 30 minutes, 6, 12 and 18 hours after infection
Procedure: (§1) Mice were randomly divided into four groups (10 mice in each group) as described in #1, described above. In the experimental group, after infection with 2.2×10^5 CFU of Pasteurella multocida through intraperitoneal injection, MT was injected intraperitoneally for four times, with the first injection 30 minutes after Pasteurella multocida infection, then the injection was performed once every 6 hours, for three times in total. Control mice were given an equal amount of DMSO at the same four time points. Subsequently, the survival rate of mice within 7 days was recorded. At the same time, mice were euthanized at 12 h, 16 h, 24 h and 32 h after infection to collect tissue and serum samples for later ELISA and bacterial count analysis.
In order to measure the colonization of mouse lung bacteria before and after melatonin treatment, the lung tissues of mice were collected 24 hours and 32 hours after infection. The tissues were homogenized under aseptic conditions, and the bacterial content was determined by continuous dilution of 10 times in saline. These different dilutions were coated on the Martin broth agar in triplicate and incubated in a constant-temperature incubator at 37° C. for 24 hours to count the bacterial CFU.

[2] = tested on: gram-negative bacteria and gram-positive bacteria; assay: MIC/MBC test, summary over all tested bacteria; format: cell-based; conditions: range over all gram-negative and gram-positive bacteria of Table 1
Procedure: 1 mL of a fresh suspension of bacteria (1×10^9 CFU) at the logarithmic growth stage was added into 100 mL containing different concentrations (50 mg/mL, 25 mg/mL, 12.5 mg/mL, 6.25 mg/mL, 3.125 mg/mL, 1.5625 mg/mL, 0.78125 mg/mL, 0.390625 mg/mL) of melatonin. A melatonin (MT)-free solution diluted with DMSO was used as a control group. The samples were shaken at 37° C. and a rotation speed of 120 r/min with protection from light for 12 hours, and then subjected to detection of the minimal inhibitory concentration (MIC) of MT on bacteria. Then, 0.1 mL of the aforementioned transparent bacterial solution was pipetted onto a sterilized agar plate of a specific culture medium and coated evenly, incubated in an incubator at 37° C. for 24 hours, and then subjected to detection of the minimum bactericidal concentration (MBC) of MT on pathogens, wherein the minimum concentration of MT at which no bacterium grew was the MBC of MT on pathogens. Each experiment was carried out for 3 times, and each group was set in triplicate.

[3] = tested on: citrate synthase of Pasteurella multocida; assay: Citrate synthase activity of bacteria after treatment; format: cell-based; conditions: MT 1, 2, 3 mg/mL, 12 h; FIG. 15
Procedure: Based on the discovery of metabolomics, the enzyme activity of citrate synthase after melatonin treatment was studied. 1 mL of Pasteurella multocida (1×10^9 CFU) at the logarithmic growth stage was added into 100 mL of fresh and sterile Martin broth medium containing different concentrations (1 mg/mL, 2 mg/mL, and 3 mg/mL) of MT. Melatonin-free DMSO was used as a solvent control group, and the bacterial cells were cultured in a constant-temperature shaker at 37° C. and 220 rpm for 12 h. Thereafter, 1 mL of the bacterial solution was centrifuged at 3000 r/min for 10 minutes, and the supernatant and precipitated cells were collected, respectively. The citrate synthase activity was determined using a determination kit according to the protocol of the instructions. Each experiment was repeated for three times, and each group was set in triplicate. Further, 1 mL of Pasteurella multocida (1×10^9 CFU) at the logarithmic growth stage was added into 100 mL of fresh and sterile Martin broth medium containing different concentrations of melatonin and citric acid (MT-1 mg/mL, MT-2 mg/mL, MT-3 mg/mL, CA-1 mg/mL, CA-2 mg/mL, CA-3 mg/mL, MT-1 mg/mL-CA-1 mg/mL, MT-2 mg/mL-CA-2 mg/mL, MT-3 mg/mL-CA-3 mg/mL). […] The citrate synthase activity was determined using a determination kit according to the protocol of the instructions. […]

Pasteurella multocida [4] = assay: Prevention and treatment of Pasteurella multocida infection in mice; format: in vivo, C57BL/6 mice
Procedure: C57 mice purchased from the Third Military Medical University were randomly divided into four groups (10 mice in each group): a group of Pasteurella multocida+solvent control, a group of Pasteurella multocida+MT (30 mg/kg), a group of Pasteurella multocida+MT (60 mg/kg), and a group of Pasteurella multocida+MT (120 mg/kg). Before Pasteurella multocida infection, MT was injected intraperitoneally to the experimental group (injection once in the morning) for consecutive 7 days (P) or 6 days (P-1), while the control mice received the equal amount of DMSO. Thereafter, mice were infected by intraperitoneal injection of suspension of Pasteurella multocida ([…]). The survival rate of mice within 7 days was monitored and recorded. Blood samples were collected from mice, and the serum was stored at −20° C. for later ELISA test. Lung samples were collected and homogenized aseptically, and then the bacterial load was quantified by serial dilution, plate inoculation and CFU counting.
as §1
In order to measure the colonization of mouse lung bacteria before and after melatonin treatment, the lung tissues of mice were collected 24 hours and 32 hours after infection. The tissues were homogenized under aseptic conditions, and the bacterial content was determined by continuous dilution of 10 times in saline. […]

Pasteurella multocida [5] = assay: Killing bacteria by melatonin above MBC (OD600, living bacteria count); format: cell-based; conditions: for time to kill all bacteria: FIGS. 2 and 3
Procedure: Into 100 mL of fresh and sterile Martin broth medium, 1 mL of Pasteurella multocida (1×10^9 CFU) at the logarithmic growth stage was added. The bacteria were cultured in a constant-temperature shaker under conditions of 37° C. and 220 rpm for 8 hours. […] After the addition of MT, the bacterial culture was continuously measured for OD600 every 20 minutes to depict a growth curve under the action of melatonin at a concentration higher than the MBC. At the same time, 100 μL of the bacterial culture was evenly coated on a Martin agar plate, and incubated at 37° C. for 24 h so as to calculate the number of living bacteria for bacterial counting.

Question: With `COc1ccc2[nH]cc(CCNC(C)=O)c2c1` [melatonin, N-acetyl-5-methoxytryptamine] as the molecule, how does the survival rate (Pasteurella multocida [1]; FIG. 35) read?
Answer: improving the survival rate

Question: And the “bacterial colonization in mouse lungs” value (Pasteurella multocida [1]; FIG. 36)?
Answer: reducing bacterial colonization

Question: And the MBC [2]?
Answer: 3.12 to 50 mg/mL (≈ 13.5 to 215 mM)

Question: What about the MIC [2] of the same molecule?
Answer: 1.56 to 50 mg/mL (≈ 6.73 to 215 mM)

Question: What about the “activity of citrate synthase in the bacteria and the culture medium” value [3] of the same molecule?
Answer: significantly reduced; also recorded: significantly inhibiting

Question: And the “bacterial colonization in the lung tissues of mice” value (Pasteurella multocida [4]; 24 hours and 32 hours after infection, prevention and treatment groups vs DMSO group)?
Answer: significantly reduced

Question: What about the “decrease of bacterial colonization amount (CFU/g)” value (Pasteurella multocida [4]; dose of 120 mg/kg, lung tissues) of the same molecule?
Answer: about 2 log 10

Question: And the “survival rates of mice” value (Pasteurella multocida [4]; prevention and treatment groups vs DMSO group, intraperitoneal, FIGS. 29-34)?
Answer: significantly improved

Question: And the “time to kill all bacteria” value (Pasteurella multocida [5]; 4 mg/mL of melatonin, added after 8 hours culture)?
Answer: 10 h

Question: And the bactericidal effect (Pasteurella multocida [5]; concentration higher than the MBC (4, 8, 10 mg/mL))?
Answer: significant bactericidal effect in a dose-dependent manner

Question: What about the “time to kill all bacteria” value (Pasteurella multocida [5]; higher concentration of melatonin (8, 10 mg/mL)) of the same molecule?
Answer: 4 h
